Some test systems named below: MALME-3M melanoma; NCI-H23 lung; SK-MEL-5 melanoma; IGROV1 ovarian; A498 renal; OVCAR-3 ovarian; SF-295 CNS; KM12 colon; RPMI-8226 leukemia; COLO 205 colon.
Common to all, as to assay: inhibition of tumour cell growth, NCI panel, 48 h

The structures appear in SMILES notation.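 Five compound concentrations were applied to cells in 96-well plates for 48 hours; endpoints were derived by simple linear interpolation of the resulting dose-response curve. The concentration for 50% growth inhibition is given as GI50. TGI: concentration producing complete growth inhibition.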 Some results are limits rather than exact numbers.

Consider `NS(=O)(=O)c1ccc(N=Nc2c(O)[nH]c3cccc(CCc4ccncc4)c23)cc1`, for which the GI50 in the assay on MALME-3M melanoma was more than 25 µM; with NCI-H23 lung, more than 25000 nM; in the assay on SK-MEL-5 melanoma, more than 25 µM; in the assay with IGROV1 ovarian, more than 25000 nM; with A498 renal it was more than 25 µM; in the assay on OVCAR-3 ovarian, more than 25 µM. Moreover, the GI50 in the assay on SF-295 CNS was more than 25000 nM; with KM12 colon it was more than 25000 nM; in the assay on RPMI-8226 leukemia, more than 25000 nM; in the assay on COLO 205 colon, more than 25 µM. Besides, the TGI in the assay with MALME-3M melanoma, in the assay with NCI-H23 lung, in the assay with SK-MEL-5 melanoma, in the assay on IGROV1 ovarian, in the assay with A498 renal and with OVCAR-3 ovarian was more than 25 µM throughout. Also, the TGI with SF-295 CNS, with KM12 colon, with RPMI-8226 leukemia and in the assay on COLO 205 colon was more than 25 µM throughout.

In the case of `O=C(CSc1nc(-c2ccccc2)c(-c2ccccc2)[nH]1)N/N=C/c1ccc([N+](=O)[O-])cc1`, the TGI with MALME-3M melanoma was 33.3 µM; in the assay on NCI-H23 lung, 33.9 µM; with SK-MEL-5 melanoma, 31.1 µM; in the assay on IGROV1 ovarian, 33.8 µM; in the assay on A498 renal, 29.2 µM; in the assay on OVCAR-3 ovarian, 30 µM. Besides, the TGI in the assay on SF-295 CNS was 36.1 µM; in the assay with KM12 colon it was 31.6 µM; in the assay with RPMI-8226 leukemia, 52.1 µM; in the assay with COLO 205 colon, 30.7 µM.

Consider `CNC(=O)N(CCCC(NC(C)=O)C(=O)NCc1ccccc1)Cc1ccccc1` (stereo not given), for which the TGI with MALME-3M melanoma, in the assay with NCI-H23 lung, with SK-MEL-5 melanoma, with IGROV1 ovarian, in the assay on A498 renal and with OVCAR-3 ovarian was more than 100 µM each time. Besides, the TGI in the assay with SF-295 CNS, with KM12 colon, in the assay with RPMI-8226 leukemia and with COLO 205 colon was more than 100 µM throughout.

With `N#CCC(=O)N/N=C(/C(=O)Nc1ccccc1)C1C(=O)N(c2ccccc2)N=C1N` (stereo not given), the TGI in the assay on MALME-3M melanoma, in the assay with NCI-H23 lung, in the assay with SK-MEL-5 melanoma, in the assay on IGROV1 ovarian, in the assay on A498 renal and in the assay with OVCAR-3 ovarian was more than 100 µM throughout. In addition, the TGI in the assay with SF-295 CNS, with KM12 colon, in the assay on RPMI-8226 leukemia and in the assay with COLO 205 colon was more than 100 µM throughout.

With `COC1OC(CO)C(O)C(NC(=O)N(C)N=O)C1O` (stereo not given), the TGI with MALME-3M melanoma, in the assay on NCI-H23 lung, in the assay on SK-MEL-5 melanoma, in the assay on IGROV1 ovarian, in the assay on A498 renal and in the assay with OVCAR-3 ovarian was more than 100 µM throughout. For the same molecule, the TGI in the assay with SF-295 CNS, with KM12 colon, in the assay on RPMI-8226 leukemia and in the assay with COLO 205 colon was more than 100 µM in each case.

Turning to `O=C(O)COc1ccc2c3c1C(=O)CCC3CO2` (stereo not given), the TGI in the assay with MALME-3M melanoma, in the assay on NCI-H23 lung, in the assay on SK-MEL-5 melanoma, in the assay with IGROV1 ovarian, in the assay with A498 renal and in the assay on OVCAR-3 ovarian was more than 100 µM throughout. In addition, the TGI in the assay with SF-295 CNS, in the assay with KM12 colon, in the assay with RPMI-8226 leukemia and in the assay on COLO 205 colon was more than 100 µM in each case.

For `COc1cc2c3c(n(CCCNC(C)(C)CO)c(=O)c2cc1OC)-c1cc2c(cc1C3=O)OCO2`, the GI50 in the assay on MALME-3M melanoma was 14.8 µM; in the assay with NCI-H23 lung it was 799 nM; in the assay with SK-MEL-5 melanoma it was 3.5 µM; with IGROV1 ovarian, 1700 nM; in the assay with A498 renal, 17.1 µM; in the assay with OVCAR-3 ovarian, 15.1 µM. In addition, the GI50 is 214 nM with SF-295 CNS, 2190 nM with KM12 colon, 16.9 nM in the assay with RPMI-8226 leukemia and 12.8 µM in the assay on COLO 205 colon. In addition, the TGI was 51.1 µM with MALME-3M melanoma; 12.3 µM with NCI-H23 lung; 13.3 µM with SK-MEL-5 melanoma; more than 100 µM in the assay on IGROV1 ovarian; 40.1 µM in the assay with A498 renal; 39.8 µM in the assay with OVCAR-3 ovarian. Also, the TGI in the assay with SF-295 CNS is 49.1 µM; in the assay with KM12 colon, more than 100 µM; in the assay on RPMI-8226 leukemia, 0.464 µM; in the assay on COLO 205 colon, more than 67.5 µM.

For the molecule `O=C(Cc1c(C(=O)Nc2ccccc2)sc(C(=O)Nc2ccccc2)c1CC(=O)Nc1ccccc1)Nc1ccccc1`, the TGI in the assay with MALME-3M melanoma, in the assay on NCI-H23 lung, in the assay on SK-MEL-5 melanoma, in the assay on IGROV1 ovarian, with A498 renal and in the assay with OVCAR-3 ovarian was more than 100 µM throughout. The TGI in the assay on SF-295 CNS, in the assay on KM12 colon, in the assay on RPMI-8226 leukemia and in the assay on COLO 205 colon was more than 100 µM each time.

`Cc1ccc(S(=O)OC2c3ccccc3Cc3ccccc32)cc1` (stereo not given): the TGI with MALME-3M melanoma stood at 26.7 µM; with NCI-H23 lung, 33.8 µM; in the assay on SK-MEL-5 melanoma, 37.1 µM; in the assay on IGROV1 ovarian it was 45.6 µM; in the assay on A498 renal it was 42.8 µM; in the assay with OVCAR-3 ovarian, 44.5 µM. Also, the TGI in the assay with SF-295 CNS is 62.6 µM; in the assay with KM12 colon, 39.2 µM; with RPMI-8226 leukemia, more than 100 µM; with COLO 205 colon it was 31.5 µM.

Regarding `S=C1NC(c2ccccc2)=NC(Cc2ccccc2)(c2ccccc2)N1c1ccccc1` (stereo not given), the TGI in the assay with MALME-3M melanoma, in the assay with NCI-H23 lung, with SK-MEL-5 melanoma, in the assay on IGROV1 ovarian, in the assay on A498 renal and in the assay on OVCAR-3 ovarian was more than 100 µM in each case. The TGI in the assay with SF-295 CNS, in the assay on KM12 colon, with RPMI-8226 leukemia and in the assay with COLO 205 colon was more than 100 µM each time.

In the case of `Cc1cc2c(cc1C)[n+](=O)c(C(=O)CC(=O)C(=O)Nc1ccccc1C)c(C)n2[O-]`, the TGI in the assay on MALME-3M melanoma, in the assay with NCI-H23 lung, in the assay on SK-MEL-5 melanoma, in the assay on IGROV1 ovarian, with A498 renal and with OVCAR-3 ovarian was more than 100 µM throughout. The TGI in the assay with SF-295 CNS, in the assay with KM12 colon, with RPMI-8226 leukemia and in the assay with COLO 205 colon was more than 100 µM in each case.

With `CN(CC(=O)O)S(=O)(=O)c1ccc(Cl)cc1`, the TGI with MALME-3M melanoma, in the assay with NCI-H23 lung, with SK-MEL-5 melanoma, in the assay on IGROV1 ovarian, in the assay on A498 renal and in the assay on OVCAR-3 ovarian was more than 100 µM throughout. Also, the TGI with SF-295 CNS, in the assay with KM12 colon, in the assay on RPMI-8226 leukemia and in the assay with COLO 205 colon was more than 100 µM each time.

As to `O=C(O)c1cc(C(=O)C(=O)c2cc(C(=O)O)c(O)c3ccccc23)c2ccccc2c1O`, the TGI in the assay on MALME-3M melanoma, with NCI-H23 lung, in the assay on SK-MEL-5 melanoma, in the assay on IGROV1 ovarian, in the assay on A498 renal and in the assay with OVCAR-3 ovarian was more than 100 µM throughout. Further, the TGI in the assay on SF-295 CNS, in the assay with KM12 colon, in the assay on RPMI-8226 leukemia and in the assay on COLO 205 colon was more than 100 µM in each case.

For the origin of these results see PubChem BioAssay (NCI).
